pIC50: −log10 of the molar value. Like-named read-outs stand apart in the source and are kept apart here.
Tests used:
LoVo = assay: Cytotoxicity assay (SRB), LoVo; format: cell-based; conditions: Homo sapiens, LoVo, 72 h, read-out: In Vitro Cellular Activity IC50 LOVO
Method: (§1) BT474, HCT-116, LoVo and MCF-7 were maintained under 7% CO2 in RPMI 1640 medium supplemented with 10% fetal bovine serum and 50 µg/ml gentamicin.
(§2) Cells were plated in 96-well microtiter dishes (12000 cells/well for BT474, 4000 cells/well for HCT-116, 6000 cells/well for LoVo and 6000 cells/well for MCF-7) in RPMI 1640 medium containing 5% fetal bovine serum and 50 µg/ml gentamicin. The cells were allowed to incubate overnight at 37° C., 7% CO2. Compound dilutions were prepared using the same medium. HCT-116, LoVo and MCF-7 cells were cultured for three days and BT474 cells were cultured for 6 days, in the presence of each compound dilution. Untreated cells were included as controls. The percentage of surviving cells was determined using a protein binding dye (sulforhodamineB, SRB) assay. Cellular protein was precipitated in each well by the addition of 0.05 ml of 50% cold trichloroacetic acid (TCA). After 1 hour, the plates were washed extensively in dH2O and dried. The sulforhodamineB dye solution (0.08 mL of 0.4% SRB in 1% acetic acid) was added to each well, kept at room temperature for ten minutes, then washed in 1% acetic acid and dried. The dye was dissolved in 10 mM Tris-HCl (150 uL) and the absorbency read at 540 nm.

BT474 = assay: Cytotoxicity assay (SRB), BT474; format: cell-based; conditions: Homo sapiens, BT-474, 144 h, read-out: In Vitro Cellular Activity IC50 BT474
Method: as §1, §2

HCT-116 = assay: Cytotoxicity assay (SRB), HCT-116; format: cell-based; conditions: Homo sapiens, HCT-116, 72 h, read-out: In Vitro Cellular Activity IC50 HCT116
Method: as §1, §2

MCF-7 = assay: Cytotoxicity assay (SRB), MCF-7; format: cell-based; conditions: Homo sapiens, MCF7, 72 h, read-out: In Vitro Cellular Activity IC50 MCF-7
Method: as §1, §2

cyclin D1/cdk 4 enzyme = target: T1, cyclin D1/cdk 4 enzyme (Homo sapiens, UniProt P11802); assay: CDK4 ELISA kinase assay (phospho-Rb ser 795 detection); format: biochemical; conditions: In Vitro Enzyme Assay, cyclin D1/cdk 4, read-out: CDK4 IC50
T1 construct: made in house; host or cells: Sf9 insect cells, recombinant baculovirus
Procedure, shortened: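 GST-Rb C-terminal fragment coated on plates; partially purified Sf9-expressed cyclin D1/CDK4, cyclin E/CDK2 or cyclin B/CDK1 with 200 μM ATP, pH 7.5 HEPES/MgCl2 buffer, 1 h at 30 °C; screen compound final 10 μg/ml. Phospho-Rb Ser795 detected by antibody ELISA (TMB, A450); % of control, IC50 from background-subtracted inhibition curves.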

T1 sequence (P11802 whole entry, species assumed): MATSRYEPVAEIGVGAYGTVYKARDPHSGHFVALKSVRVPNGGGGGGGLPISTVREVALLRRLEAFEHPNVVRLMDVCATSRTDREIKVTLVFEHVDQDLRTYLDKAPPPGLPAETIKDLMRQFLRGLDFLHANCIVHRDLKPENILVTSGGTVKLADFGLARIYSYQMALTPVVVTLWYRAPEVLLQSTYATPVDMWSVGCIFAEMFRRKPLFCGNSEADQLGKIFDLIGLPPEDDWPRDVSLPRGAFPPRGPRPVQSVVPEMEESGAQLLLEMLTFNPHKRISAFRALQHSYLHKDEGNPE
T1 sequence (P24385 whole entry partner, species assumed): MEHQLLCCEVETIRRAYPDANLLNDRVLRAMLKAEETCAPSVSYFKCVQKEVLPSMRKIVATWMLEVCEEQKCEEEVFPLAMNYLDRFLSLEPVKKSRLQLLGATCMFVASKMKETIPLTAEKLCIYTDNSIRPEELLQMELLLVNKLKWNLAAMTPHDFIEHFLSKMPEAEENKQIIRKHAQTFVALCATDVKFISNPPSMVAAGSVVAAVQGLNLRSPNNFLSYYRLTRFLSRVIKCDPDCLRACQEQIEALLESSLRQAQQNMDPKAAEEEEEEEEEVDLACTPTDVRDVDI

COc1ccc(CN/C=C2\C(=O)NC(=O)c3ccc(Br)cc32)cc1F [Example 181, (4Z)-6-Bromo-4-{[(3-fluoro-4-methoxybenzyl)amino]methylene}isoquinoline-1,3(2H,4H)-dione]
pIC50 (LoVo; LoVo cells, SRB, three days): < 4.30 | pIC50 (BT474; BT474 cells, SRB, 6 days): < 4.30 | pIC50 (HCT-116; HCT116 cells, SRB, three days): 4.80 | pIC50 (MCF-7; MCF-7 cells, SRB, three days): < 4.30

O=C1NC(=O)c2ccc(Br)cc2/C1=C/Nc1ccc2ncccc2c1 [Example 271, (4Z)-6-Bromo-4-[(quinolin-6-ylamino)methylene]isoquinoline-1,3(2H,4H)-dione]
pIC50 (LoVo; LoVo cells, SRB, three days): < 4.30 | pIC50 (BT474; BT474 cells, SRB, 6 days): 4.49 | pIC50 (HCT-116; HCT116 cells, SRB, three days): 4.34 | pIC50 (MCF-7; MCF-7 cells, SRB, three days): 4.41

CC(C)(C)OC(=O)N1CCN(c2ccc(N/C=C3\C(=O)NC(=O)c4ccc(I)cc43)cn2)CC1 [Example 409, tert-Butyl 4-(5-{[(Z)-(6-iodo-1,3-dioxo-2,3-dihydroisoquinolin-4(1H)-ylidene)methyl]amino}pyridin-2-yl)piperazine-1-carboxylate]
pIC50 (LoVo; LoVo cells, 3 days, SRB): 5.19 | pIC50 (BT474; BT474 cells, 6 days, SRB): 4.38 | pIC50 (HCT-116; HCT116 cells, 3 days, SRB): 4.59 | pIC50 (MCF-7; MCF-7 cells, 3 days, SRB): 4.44

CN1C(=O)/C(=C\Nc2ccc(CN3CCCCC3)cc2)c2ccccc2C1=O [Example 49, (4Z)-2-Methyl-4-{[(4-piperidin-1-ylmethyl)phenyl]amino}methyleneisoquinoline-1,3(2H,4H)-dione]
pIC50 (LoVo): 4.94 | pIC50 (BT474): 5.16 | pIC50 (HCT-116): 5.26 | pIC50 (MCF-7): 4.89

CN(CCN1CCOCC1)c1ccc(NC=C2C(=O)NC(=O)c3ccc(Br)cc32)cc1 (stereo in doubt) [Example 871, (4Z)-6-Bromo-4-[({4-[methyl(2-morpholin-4-ylethyl)amino]phenyl}amino)methylene]isoquinoline-1,3(2H,4H)-dione]
pIC50 (LoVo; LoVo cells, 3 days, SRB): 4.33 | pIC50 (BT474; BT474 cells, 6 days, SRB): < 4.30 | pIC50 (HCT-116; HCT116 cells, 3 days, SRB): 4.86 | pIC50 (MCF-7; MCF-7 cells, 3 days, SRB): 4.54

O=C1NC(=O)c2ccc(Br)cc2/C1=C/NCc1ccc(NC(=O)C(Cl)Cl)cc1 [Example 302, N-[4-({[(Z)-(6-Bromo-1,3-dioxo-2,3-dihydroisoquinolin-4(1H)-ylidene)methyl]amino}methyl)phenyl]-2,2-dichloroacetamide]
pIC50 (LoVo; LoVo cells, SRB, three days): 6.23 | pIC50 (BT474; BT474 cells, SRB, 6 days): 6.25 | pIC50 (HCT-116; HCT116 cells, SRB, three days): 6.26 | pIC50 (MCF-7; MCF-7 cells, SRB, three days): 5.92

Cc1ccc2c(c1)CNC(=O)C2=CNc1ccc(N2CCOCC2)cc1 [Example 858, 7-Methyl-4-[(4-morpholin-4-yl-phenylamino)-methylene]-1,4-dihydro-2H-isoquinolin-3-one]
pIC50 (LoVo; LoVo cells, 3 days, SRB): 4.41 | pIC50 (BT474; BT474 cells, 6 days, SRB): 4.46 | pIC50 (HCT-116; HCT116 cells, 3 days, SRB): 4.42 | pIC50 (MCF-7; MCF-7 cells, 3 days, SRB): 4.46

O=C1NCc2cc(Cl)ccc2C1=CNc1cccc(O)c1 [Example 856, 7-Chloro-4-[(3-hydroxy-phenylamino)-methylene]-1,4-dihydro-2H-isoquinolin-3-one]
pIC50 (LoVo; LoVo cells, 3 days, SRB): 4.87 | pIC50 (BT474; BT474 cells, 6 days, SRB): 5.25 | pIC50 (HCT-116; HCT116 cells, 3 days, SRB): 4.91 | pIC50 (MCF-7; MCF-7 cells, 3 days, SRB): 5.42

CSc1ccc(-c2ccc3c(c2)C(=CNCc2ccc(S(N)(=O)=O)cc2)C(=O)NC3=O)cc1 [Example 763, 4-({[6-(4-Methylsulfanyl-phenyl)-1,3-dioxo-2,3-dihydro-1H-isoquinolin-4-ylidenemethyl]-amino}-methyl)-benzenesulfonamide]
pIC50 (cyclin D1/cdk 4 enzyme): 4.30

O=C1NC(=O)c2ccccc2C1=CNc1ccc(N2CCN(C3CCCC3)CC2)cc1 [Example 601, 4-{[4-(4-Cyclopentyl-piperazin-1-yl)-phenylamino]-methylene}-4H-isoquinoline-1,3-dione]
pIC50 (cyclin D1/cdk 4 enzyme): 4.92

CN1CCN(c2ccc(NC=C3C(=O)NC(=O)c4ccc(-c5ccc6ccccc6c5)cc43)cc2)CC1 [Example 668, 4-{[4-(4-Methyl-piperazin-1-yl)-phenylamino]-methylene}-6-naphthalen-2-yl-4H-isoquinoline-1,3-dione]
pIC50 (cyclin D1/cdk 4 enzyme): 4.66

O=C1NC(=O)c2ccc(C=CCc3ccccc3)cc2C1=CNc1ccc(CN2CCCC2)cc1 [Example 622, 6-(3-Phenyl-propenyl)-4-[(4-pyrrolidin-1-ylmethyl-phenylamino)-methylene]-4H-isoquinoline-1,3-dione]
pIC50 (cyclin D1/cdk 4 enzyme): 4.43

CN1CCN(c2ccc(NC=C3C(=O)NC(=O)c4ccc(C=CCN5CC(=O)NC5=O)cc43)cc2)CC1 [Example 800, 6-[3-(2,4-Dioxo-imidazolidin-1-yl)-propenyl]-4-{[4-(4-methyl-piperazin-1-yl)-phenylamino]-methylene}-4H-isoquinoline-1,3-dione]
pIC50 (cyclin D1/cdk 4 enzyme): 5.30

Cc1cc(NS(=O)(=O)c2ccc(NC=C3C(=O)NC(=O)c4ccccc43)cc2)no1 [Example 556, 4-[(1,3-Dioxo-2,3-dihydro-1H-isoquinolin-4-ylidenemethyl)-amino]-N-(5-methyl-isoxazol-3-yl)-benzenesulfonamide]
pIC50 (cyclin D1/cdk 4 enzyme): 4.32

O=C1NC(=O)c2ccccc2C1=CNNc1cccc(C(=O)O)c1 [Example 552, 3-[N′-(1,3-Dioxo-2,3-dihydro-1H-isoquinolin-4-ylidenemethyl)-hydrazino]-benzoic acid]
pIC50 (cyclin D1/cdk 4 enzyme): 4.49

O=C1NC(=O)c2ccc(-c3cccc(-c4ccccc4)c3)cc2C1=CNCc1ccc(O)c(O)c1 [Example 787, 6-Biphenyl-3-yl-4-[(3,4-dihydroxy-benzylamino)-methylene]-4H-isoquinoline-1,3-dione]
pIC50 (cyclin D1/cdk 4 enzyme): 5.64

Cc1ncsc1C=Cc1ccc2c(c1)C(=CNc1ccc(N3CCN(C)CC3)cc1)C(=O)NC2=O [Example 681, 4-{[4-(4-Methyl-piperazin-1-yl)-phenylamino]-methylene}-6-[2-(4-methyl-thiazol-5-yl)-vinyl]-4H-isoquinoline-1,3-dione]
pIC50 (cyclin D1/cdk 4 enzyme): 4.75

N#CCc1ccc(NC=C2C(=O)NC(=O)c3ccc(-c4cccc(F)c4)cc32)cc1 [Example 705, (4-{[6-(3-Fluoro-phenyl)-1,3-dioxo-2,3-dihydro-1H-isoquinolin-4-ylidenemethyl]-amino}-phenyl)-acetonitrile]
pIC50 (cyclin D1/cdk 4 enzyme): 4.90

NS(=O)(=O)c1ccc(CNC=C2C(=O)NC(=O)c3ccc(-c4ccccc4C(F)(F)F)cc32)cc1 [Example 745, 4-({[1,3-Dioxo-6-(2-trifluoromethyl-phenyl)-2,3-dihydro-1H-isoquinolin-4-ylidenemethyl]-amino}-methyl)-benzenesulfonamide]
pIC50 (cyclin D1/cdk 4 enzyme): 4.70

COCCN(C)Cc1ccc(N/C=C2\C(=O)NC(=O)c3ccccc32)cc1 [Example 616, 4-[(4-{[(2-Methoxy-ethyl)-methyl-amino]-methyl}-phenylamino)-methylene]-4H-isoquinoline-1,3-dione]
pIC50 (cyclin D1/cdk 4 enzyme): 4.83

CN1CCN(c2ccc(NC=C3C(=O)NC(=O)c4ccc(C=CCOCCO)cc43)cc2)CC1 [Example 799, 6-[3-(2-Hydroxy-ethoxy)-propenyl]-4-{[4-(4-methyl-piperazin-1-yl)-phenylamino]-methylene}-4H-isoquinoline-1,3-dione]
pIC50 (cyclin D1/cdk 4 enzyme): 5.20

CC(C)N1CCN(c2ccc(NC=C3C(=O)NC(=O)c4ccccc43)cc2)CC1 [Example 600, 4-{[4-(4-Isopropyl-piperazin-1-yl)-phenylamino]-methylene}-4H-isoquinoline-1,3-dione]
pIC50 (cyclin D1/cdk 4 enzyme): 4.64

N#CCN1CCN(c2ccc(N/C=C3\C(=O)NC(=O)c4ccccc43)cc2)CC1 [Example 596, (4-{4-[(1,3-Dioxo-2,3-dihydro-1H-isoquinolin-4-ylidenemethyl)-amino]-phenyl}-piperazin-1-yl)-acetonitrile]
pIC50 (cyclin D1/cdk 4 enzyme): 4.56

COc1ccc(CNC=C2C(=O)NC(=O)c3ccc(C=Cn4ccnc4)cc32)cc1O [Example 733, 4-[(3-Hydroxy-4-methoxy-benzylamino)-methylene]-6-(2-imidazol-1-yl-vinyl)-4H-isoquinoline-1,3-dione]
pIC50 (cyclin D1/cdk 4 enzyme): 8.00
